We go through one substance from patent publication US20100016221A1, “METHOD OF DEGRADING PROTEIN BY CHAPERONE-MEDIATED AUTOPHAGY” (RIKEN, priority 2008, published 2010).

In one assay the test system is 150Q Neuro2a cells. Kind of assay: Cell death assay (propidium iodide uptake) in 150Q Neuro2a cells. Format: cell-based, mouse. The settings on record: after 60 hours of induction. As for the experimental part: Mouse neuroblastoma (Neuro2a) cells were maintained in Dulbecco's modified Eagle's medium (Sigma) supplemented with 10% heat-inactivated fetal bovine serum (Sigma), 100 U/ml penicillin and 100 μg/ml streptomycin (Invitrogen) at 37° C. in an atmosphere containing 5% CO2 and 95% air. Establishment of stable Neuro2a cell lines with the ecdysone-inducible mammalian expression system (Invitrogen), that express tNhtt-EGFP-16Q (16Q Neuro2a cells), tNhtt-EGFP-150Q (150Q Neuro2a cells) and tNhtt-EGFP-150Q-nls (150Q-nls Neuro2a cells) has been described earlier (T. Nagai et al., supra, H. Doi et al., supra, E. A. Zemskov et al., J Neurochem. 87, 2 (2003)). Neuro2a cells were differentiated with 5mM dbcAMP (N^6, 2′-O-dibutyryladenosine-3′,5′-cyclic monophosphate sodium salt) (Nacalai Tesque) and induced to express tNhtt-polyQ with 2 μM ponasterone A (ponA; Invitrogen) for indicated times. Neuro2a/FRT/TR cell line was generated as described in the protocol for Flp-in/T-Rex system (Invitrogen). […]
For quantification of cell death, 5 μg/ml each of Hoechst 33342 and propidium iodide (PI) were added to differentiated and induced Neuro2a cells transiently transfected with either of the tested constructs (FIG. 6A). After 10 minutes at 37° C., the number of cells with PI uptake over the total number of cells was calculated by ArrayScan.

A further assay deals with T1, 150Q-EGFP (Homo sapiens, UniProt P42858).
T1 construct: N-terminal fragment of human huntington exon 1 (tNhtt); expressed in transfected cells; host or cells: Neuro2a cells, transient co-transfection (pcDNA3.1)
T1 sequence (P42858 with tags, fused parts or gaps): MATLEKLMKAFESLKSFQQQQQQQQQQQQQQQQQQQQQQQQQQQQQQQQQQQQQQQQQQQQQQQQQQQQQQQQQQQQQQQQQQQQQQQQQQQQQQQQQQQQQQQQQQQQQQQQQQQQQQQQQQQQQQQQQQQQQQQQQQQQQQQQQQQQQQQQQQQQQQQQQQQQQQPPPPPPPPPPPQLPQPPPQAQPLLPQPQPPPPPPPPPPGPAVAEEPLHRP
Kind of assay: Co-transfection with 150Q-EGFP in Neuro2a cells, confocal imaging with Lysotracker-rhodamine. Format: cell-based. To be noted: co-expression for 16 hours. The source says:
The construction of the N-terminal fragment of human huntington exon 1 (tNhtt) encoding 60 CAG repeats was previously described (G. H. Wang et al., Neuroreport 10, 12(1999)). This fragment was fused to the N-terminal of a variant of yellow fluorescent protein (Venus) (T. Nagai et al., Nat. Biotechnol. 20, 1 (2002)) and inserted into the pcDNA3.1 vector (60Q). Two Hsc70 binding motifs (HSC70bm) (SEQ ID NOs:9 and 10: in bold) were inserted between the Cfr13I and BamHI cutting sites of 60Q: 5′-GTTAAGAAGGATCAA-GCTGGAGCCGCTGCACCG-AAGTTCGAACGTCAA-3′ (SEQ ID NO:11). The tNhtt-16Q-EGFP and tNhtt-150Q-EGFP plasmids for transient transfection were prepared by the introduction of the coding sequence into pcDNA3.1 vector (Invitrogen). […]
To investigate whether the (R)HQ targets the polyQ to lysosomes, the present inventors co-transfected HQ or other constructs with 16Q-EGFP or 150Q-EGFP to Neuro2a cells for 16 hours. In the cells expressing 16Q-EGFP, none of the co-transfected constructs had any effect on the subcellular distribution of the green fluorescence (FIG. 2C). […] To confirm this observation, the present inventors co-transfected the tested constructs with tNhtt-60Q to Neuro2a cells, 16 hours later purified intact lysosomes and analyzed them for the presence of the polyQ protein. […]

Take “HSC70bm-(QBP1)2 (MARVKKDQAEPLHRKFERQPPGSNWKWWPGIFDSNWKWWPGIFD) [HQ]”: the “decrease of the percentage of PI-positive cells” value in the assay on 150Q Neuro2a cells is reported as 37.4%. Moreover, the “subcellular distribution of 150Q-EGFP fluorescence” value in the assay with 150Q-EGFP was “fluorescence intensity decreased, redistributed and partly co-localized with the lysosomal marker”.
